Publication PMC8878928 (International Journal of Molecular Sciences, 2022)

Key:
SARS-CoV 3CL^Pro = SARS-CoV 3CL^Pro (Severe acute respiratory syndrome coronavirus, UniProt P0C6X7); assay: biochemical
SARS-CoV-2 3CL^Pro = SARS-CoV-2 3CL^Pro (Severe acute respiratory syndrome coronavirus 2, UniProt P0DTD1); assay: FRET-based 3CLPro enzymatic inhibition assay (SARS-CoV-2); format: biochemical; details: 0.2 μM enzyme, mean ± SE, n = 3
3CL^Pro = details: read-out: IC50 against 3CL^Pro; lead compound; cited from earlier work
SARS-CoV-2 [1] = test system: SARS-CoV-2; set-up: method as in PMID 32198291; details: Calu-3 cell line; read-out: EC50 (viral RNA copies); cited from earlier work
SARS-CoV-2 [2] = assay: SARS-CoV-2 infection assay in Vero E6 cells, viral RNA by qPCR; format: cell-based; details: final concentration 10 μM, initial screen
SARS-CoV-2 [3] = details: co-administration of PF07321332 and Ritonavir, oral, phase II/III trials; cited from earlier work

SMILES	IC50 (SARS-CoV 3CL^Pro) [nM]	IC50 (SARS-CoV-2 3CL^Pro) [nM]	IC50 (3CL^Pro) [nM]	EC50 (SARS-CoV-2 [1]) [µM]	Reduction of RNA loads of SARS-CoV-2 (relative level to DMSO control) (SARS-CoV-2 [2])	Reduction of overall hospitalizations (SARS-CoV-2 [3]) [%]
CC(C)C[C@H](NC(=O)[C@@H](NC(=O)C1CCCCC1)C(C)C)C(=O)N[C@H](C=O)C[C@@H]1CCCNC1=O [TPM1]	479 ± 29	241 ± 0.5				
CC(C)(C)OC(=O)Nc1cccn([C@@H](CC2CC2)C(=O)N[C@@H](C[C@@H]2CCNC2=O)C(=O)C(=O)NCc2ccccc2)c1=O [13b]			670 ± 180	4 to 5		
COc1ccc(/C=C/C(=O)N[C@H](C(=O)N[C@@H](CC(C)C)C(=O)N[C@H](C=O)C[C@@H]2CCCNC2=O)C(C)C)cc1 [TPM10]	231 ± 4	80 ± 2				
CC[C@H](C)[C@H](NC(=O)/C=C/c1ccccc1)C(=O)N[C@H](C=O)C[C@@H]1CCCNC1=O [TPM19]	1220 ± 312	1060 ± 31			10^3	
CC(C)(C)[C@H](NC(=O)C(F)(F)F)C(=O)N1C[C@H]2[C@@H]([C@H]1C(=O)N[C@H](C#N)C[C@@H]1CCNC1=O)C2(C)C [PF-07321332]						89
CC(C)C[C@H](NC(=O)[C@H](Cc1ccccc1)NC(=O)/C=C/c1ccccc1)C(=O)N[C@H](C=O)C[C@@H]1CCCNC1=O [TPM16]	232 ± 1	166 ± 2			10^3	
CC(C)C[C@H](NC(=O)[C@@H](NC(=O)c1ccco1)C(C)C)C(=O)N[C@H](C=O)C[C@@H]1CCCNC1=O [TPM5]	134 ± 1	59 ± 2				
